Assay results taken from patent publication US20060189699A1, “Antimicrobial trinervitane derivatives” (Commonwealth Scientific and Industrial Researh Org, priority 2003, published 2006).
Entries after “also recorded” stand apart in the source; their conditions may differ. Read-outs that look alike come from different tables or passages of the source.

Key:
[1] = system: Bacillus subtilis (ATCC Strain 6633); assay: modified agar bioassay for weak antimicrobial activity (clear zone); format: cell-based; details: for level of antimicrobial activity relative to trinervitadienes previously isolated from N. triodiae: screening assays, qualitative, potency not determined quantitatively
Procedure: Extracts of the worker and soldier castes of the nasute termite species Nasutitermes exitiosus (Hill) (Isoptera:Termitidae) were screened against Bacillus subtilis (ATCC Strain 6633) at a concentration of 4.0 mg/ml in a bioassay. […] The only difference between the assay used in the current work and that described previously (WO 01/90035) is that in the current case the density of bacterial cells in the Luria-Bertani agar medium was ten times lower than that described in the earlier specification.
Twelve mL of a 70% methanol extract of N. exitiosus soldiers (containing 86 mg of solute) was fractionated by reverse-phase HPLC using a semi-preparative column at a flow rate of 4 ml/min and a gradient from water containing 0.05% (v/v) trifluroacetic acid to 100% acetonitrile over 20 minutes and then 100% acetonitrile for a further 15 minutes. The UV absorbance of the eluant was monitored at 230 nm. Fractions were collected over 35 minutes. Corresponding fractions were pooled across replicate separation runs and the pooled fractions were evaporated to dryness under nitrogen. Residues of the fractions were redissolved in HPLC grade water (fractions from 1-8 minutes), 70% aqueous methanol (9-15 minutes), or methanol (16-35 minutes).

Bacillus subtilis = details: WO 01/90035, as compound 9; cited from earlier work
[2] = isolated HPLC sub-fractions / purified compounds
[3] = purified components of fraction F2, modified antimicrobial assay

Row | Compound | antimicrobial / biological activity [1, 2] | antimicrobial activity shown in the earlier patent specification (Bacillus subtilis) | antimicrobial / biological activity [1] | level of antimicrobial activity relative to trinervitadienes previously isolated from N. triodiae [1] | clear zone diameter [1, 3] | clear zone diameter ([1]; pooled reverse-phase HPLC fractions of soldier extract, quantity corresponding to 20 μL of crude extract)
1 | C/C1=C/CC[C@H](C)CCC2C(C)[C@@H]3C1CC[C@]3(C)[C@@H](O)[C@@H]2O (stereo partly drawn) [S, 1(15),8(9)-trinervitadiene-2β,3α-diol] | biologically active; also recorded: confirmed | antimicrobial activity | – | – | – | –
2 | 1(15),8(19)-trinervitadiene-2β,3α,9α-triol 2,3,9-triacetate [U] | – | – | biologically active; also recorded: antimicrobial activity; also recorded: confirmed | qualitatively similar levels of antimicrobial activity | – | –
3 | C=C1/C2=C\C[C@@H](C)CCCC(=C)[C@@H]3CC[C@@](C)([C@H]13)[C@@H](O)[C@@H]2O [Q, 1(14),8(19),15(17)-trinervitatriene-2β,3α-diol] | biologically active | – | – | qualitatively similar levels of antimicrobial activity | 4 mm | –
4 | C=C1/C2=C\C[C@@H](C)CCC/C(C)=C3/CC[C@@](C)([C@H]13)[C@@H](O)[C@@H]2O [R, 1(14),7(8),15(17)-trinervitatriene-2β,3α-diol] | biologically active | – | – | qualitatively similar levels of antimicrobial activity | 5 mm | –
5 | 1(15),8(9)-trinervitadiene-3α-ol-2-one | biologically active; also recorded: antimicrobial compound; also recorded: confirmed | – | – | qualitatively similar levels of antimicrobial activity | – | –
6 | C=C1/C2=C\C[C@@H](C)C/C=C/C(=C)[C@@H]3CC[C@@](C)([C@H]13)[C@@H](O)[C@@H]2O [P, 9E-1(14),8(19),9(10),15(17)-trinervitatetraene-2β,3α-diol] | – | – | – | qualitatively similar levels of antimicrobial activity | – | 4 mm
